# Results reported in patent US9765063B2, “Amido compounds as RORγt modulators and uses thereof” (New York University, priority 2011, dated 2017).
# Where two headings read alike, the source gives them in different places.
# Biological target: T1, RORγt (Mus musculus, UniProt P51450)
# T1 construct: expressed in transfected cells; the other entry of the earlier key: GAL4 (P04386, Regulatory protein GAL4)
# Assay: RORγt S2 cell reporter assay (Gal4-RORγt fusion, UAS-luciferase)
# Type: cell-based
# Details: for Emax: % of the maximal response of control inhibitor (Digoxin), set at 100%, read-out: Efficacy (%); for IC50: Drosophila S2 cells, luciferase reporter, read-out: IC50
# Excerpt: Methods: The Drosophila S2 cell line was originally purchased from Invitrogen and was maintained in Schneider's medium supplemented with 10% heat-inactivated bovine fetal calf serum and antibiotics (Invitrogen). […] The resulting chimeric gene was subcloned into the copper inducible pMT/V5-His A vector (available from Invitrogen).
# Renilla luciferase construct under the polIII promoter was obtained from Dr. Dasgupta's laboratory (NYU medical center). In order to generate stable cell lines, cells were co-transfected with pMT-G4DBD-RORγt, pMT-G4DBD-RORα, pMT-G4DBD-DHR3, or pMT-G4DBDVP16 and pHygro plasmids (Invitrogen) and screened for resistant colonies in the presence of hygromycin (0.3 mg/mL). […] Using similar methods, stable clones with genomic integration of the luciferase reporters and other reporters were generated such as pMT-RORα_luc, pMT-DHR3_luc, or pMT-VP16_luc.
# Methods: 600 G4DBD-RORγ/γt-luc reporter (#25) or G4DBD-VP16-luc reporter cells were distributed into each well of 1,536-well white bottom plates in 4 μl S2 cell culture volume containing hygromicin (300 μg/ml) and puromycin (2 μg/ml). […] After one-hour incubation, 1 of culture medium solution containing copper sulfate (to final 0.7 mM) and 10 μM RORγ/γt antagonists were added to each well. After 20-hour incubation at ambient temperature, 1.5 μl firefly luciferase detection mix was added and the luciferase activities were measured in 10 min. ViewLux luminometers were used for measuring luciferase signal.
# A cell-based reporter assay was used to detect RORγt-mediated activity. This assay, called RORγt employed Drosophila Schneider cells that were stably transfected with two vectors: a gene expressing a fusion of the Gal4 DNA binding domain and RORγt transactivation domain under the control of the metallothionine promoter and a Photinus luciferase reporter regulated by the Gal4 binding site enhancer, UAS. […] Cells (600/well) were dispensed into white solid 1536-well plates (Greiner) using a solenoid-based dispenser. Following transfer of […] compound or DMSO vehicle by a pin tool, the plates were incubated 1 hr at ambient temperature, and 1 uL/well copper sulfate (700 uM final concentration) was added. The plates were centrifuged 15 s at 1000 RPM and incubated 20 hr at ambient temperature. After addition of 1.5 uL Photinus luciferase detection reagent, the plates were incubated 10 min at ambient temperature and then read by a ViewLux (Perkin Elmer) to detect luminescence. […] Efficacy is expressed as % of the maximal response of control inhibitor (Digoxin), set at 100%.
# T1 sequence (P51450 with tags, fused parts or gaps): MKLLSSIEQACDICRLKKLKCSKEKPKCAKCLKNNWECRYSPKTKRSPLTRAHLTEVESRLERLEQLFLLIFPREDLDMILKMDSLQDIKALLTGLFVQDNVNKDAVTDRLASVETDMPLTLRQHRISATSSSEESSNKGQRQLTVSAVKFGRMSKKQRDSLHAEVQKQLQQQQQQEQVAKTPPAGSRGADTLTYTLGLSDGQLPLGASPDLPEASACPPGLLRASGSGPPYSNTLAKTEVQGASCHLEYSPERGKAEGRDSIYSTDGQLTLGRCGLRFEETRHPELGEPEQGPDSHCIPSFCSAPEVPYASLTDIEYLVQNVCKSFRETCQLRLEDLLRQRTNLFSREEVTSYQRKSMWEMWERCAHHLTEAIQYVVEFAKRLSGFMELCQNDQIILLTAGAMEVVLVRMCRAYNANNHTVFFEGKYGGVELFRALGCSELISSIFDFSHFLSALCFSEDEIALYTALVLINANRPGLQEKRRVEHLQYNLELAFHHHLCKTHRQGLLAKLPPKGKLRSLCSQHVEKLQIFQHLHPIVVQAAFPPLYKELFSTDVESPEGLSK
Compound,Emax (Table 1) [%],IC50 (Table 1) [nM],IC50 (Table 1A) [nM]
COc1cc(O)c(C(CC(=O)N2CC(C)CC(C)C2)c2ccc(S(=O)(=O)N(C)C)cc2)c(OC)c1 (stereo not drawn) [Compound 84],103,11000 to 50000,
"COc1cc(O)c(C(CC(=O)N2CC(C)CC(C)C2)c2ccncc2)c(OC)c1 (stereo not drawn) [Compound 108, 1-(3,5-Dimethylpiperidin-1-yl)-3-(2-hydroxy-4,6-dimethoxyphenyl)-3-(pyridin-4-yl)propan-1-one]",119,11000 to 50000,
"COc1cc(O)c(C(CC(=O)N2CC(C)C[C@@H](C)C2)c2nc3ccccc3s2)c(OC)c1 (stereo in doubt) [Compound 205, 1-(3,5-Dimethylpiperidin-1-yl)-3-(4,6-dimethoxy-2-hydroxy-phenyl)-3-(benzothiazol-2-yl)propan-1-one]",,,< 1000
COc1cc(O)c(C(CC(=O)N2C[C@H](C)C[C@H](C)C2)c2c[nH]c(C)n2)c(OC)c1 (stereo partly drawn) [Compound 203],,,1000 to 10000
CC1CC(C)CN(C(=O)CC(c2ccc3c(c2)OCO3)c2c(O)ccc3cccnc23)C1 (stereo not drawn) [Compound 146],,1000 to 10000,
"COc1cc(O)c(C(CC(=O)N2C[C@H](C)C[C@H](C)C2)c2cnccn2)c(OC)c1 (stereo partly drawn) [Compound 204, 1-(3,5-Dimethylpiperidin-1-yl)-3-(4,6-dimethoxy-2-hydroxy-phenyl)-3-(pyrazin-2-yl)propan-1-one]",,,1000 to 10000
COc1c(C(CC(=O)N2CC(C)CC(C)C2)c2ccc3c(c2)OCO3)c(O)cc2occc12 (stereo not drawn) [Compound 139],94.5,1000 to 10000,
"COc1cc(O)c(C(CC(=O)N2C[C@H](C)C[C@H](C)C2)c2ccc(C(=O)O)cc2)c(OC)c1 (stereo partly drawn) [Compound 202, 4-(3-(3,5-cis-Dimethylpiperidin-1-yl)-1-(2-hydroxy-4,6-dimethoxyphenyl)-3-oxopropyl)benzoic acid]",,,< 1000
"COc1cc(O)c(C(CC(=O)N2C[C@H](C)C[C@H](C)C2)c2ccc(OC)nc2)c(OC)c1 (stereo partly drawn) [Compound 206, 1-(3,5-Dimethylpiperidin-1-yl)-3-(4,6-dimethoxy-2-hydroxy-phenyl)-3-(2-methoxypyrid-5-yl)propan-1-one]",,,< 1000

# Further lines, results first:
Emax (Table 1) [%],IC50 (Table 1) [nM],IC50 (Table 1A) [nM],Compound
96.7,1000 to 10000,,COc1cc(O)c(C(CC(=O)N2CC(C)CC(C)C2)c2ccc(C(N)=O)cc2)c(OC)c1 (stereo not drawn) [Compound 111]
93.6,< 1000,,"COc1cc(O)c(C(CC(=O)N2CC(C)CC(C)C2)c2ccc(C(C)=O)cc2)c(OC)c1 (stereo not drawn) [Compound 100, 3-(4-Acetylphenyl)-1-(3,5-dimethylpiperidin-1-yl)-3-(2-hydroxy-4,6-dimethoxyphenyl)propan-1-one]"
,1000 to 10000,,COc1cc(O)c(C(CC(=O)N2CC(C)CC(C)C2)c2ccc(C(=O)NC3CC3)cc2)c(OC)c1 (stereo not drawn) [Compound 95]
87,< 1000,,"COc1cc(OC)c(C(CC(=O)N2C[C@H](C)C[C@H](C)C2)c2ccc(C(=O)O)cc2)c(OC)c1 (stereo partly drawn) [Compound 201, 4-(3-(3,5-cis-Dimethylpiperidin-1-yl)-3-oxo-1-(2,4,6-trimethoxyphenyl)-propyl)benzoic acid]"
93.8,1000 to 10000,,"COc1cc(O)c(C(CC(=O)N2CC(C)CC(C)C2)c2cccc(S(C)(=O)=O)c2)c(OC)c1 (stereo not drawn) [Compound 83, 1-(3,5-Dimethylpiperidin-1-yl)-3-(2-hydroxy-4,6-dimethoxyphenyl)-3-(3-(methylsulfonyl)phenyl)propan-1-one]"
96.9,1000 to 10000,,"COc1cc(O)c(C(CC(=O)N2CC(C)CC(C)C2)c2cccnc2)c(OC)c1 (stereo not drawn) [Compound 106, 1-(3,5-Dimethylpiperidin-1-yl)-3-(2-hydroxy-4,6-dimethoxyphenyl)-3-(pyridin-3-yl)propan-1-one]"
-90.8,1000 to 10000,,COc1cc(O)c(C(CC(=O)N2CC(C)CC(C)C2)c2csc3ccccc23)c(OC)c1 (stereo not drawn) [Compound 79]
95,1000 to 10000,,COc1cc(O)c(C(CC(=O)N2CCCC(C)C2)c2cccs2)c(OC)c1 (stereo not drawn) [Compound 70]
